In brackets after ≈: the same amount, converted by molar mass. Read-outs that look alike come from different tables or passages of the source.
Legend:
Proteus vulgaris OX19 = test: Minimum inhibitory concentration, serial dilution on nutrient agar; type: cell-based; conditions: 37° C., 18 hours incubation
[1] = system: Pseudomonas aeruginosa K-Ps102; test: as above; type: cell-based
[2] = system: Mycobacterium smegmatis ATCC 607; test: as above; type: cell-based; conditions: Mycolicibacterium smegmatis
[3] = system: Pseudomonas aeruginosa PST1; test: as above; type: cell-based; conditions: PST1, nutrient agar, 37° C., 18 hours incubation, read-out: MIC
[4] = system: Pseudomonas maltophilia GN907; test: as above; type: cell-based; conditions: Stenotrophomonas maltophilia, 37° C., 18 hours incubation
[5] = system: Pseudomonas aeruginosa H9; test: as above; type: cell-based; conditions: H9, nutrient agar, 37° C., 18 hours incubation, read-out: MIC
[6] = system: Escherichia coli K-12 ML 1629; test: as above; type: cell-based; conditions: K12ML1629, nutrient agar, 37° C., 18 hours incubation, read-out: MIC
[7] = system: Pseudomonas aeruginosa 21-75; test: as above; type: cell-based; conditions: 2175, 37° C., 18 hours incubation
Serratia 4 = test: as above; type: cell-based; conditions: 37° C., 18 hours incubation
Escherichia coli K-12 R5 = test: as above; type: cell-based; conditions: K12R5, 18 h
Providencia Pv 16 = test: as above; type: cell-based; conditions: PV16, 37° C., 18 hours incubation
[8] = system: Pseudomonas aeruginosa B-13; test: as above; type: cell-based; conditions: B13, 37° C., 18 hours incubation
[9] = system: Pseudomonas aeruginosa 99; test: as above; type: cell-based; conditions: Pseudomonas aeruginosa, 99; nutrient agar, 37° C., 18 hours incubation; read-out: MIC
[10] = system: Shigella dysenteriae JS 11910; test: as above; type: cell-based; conditions: JS11910, 18 h
[11] = system: Staphylococcus aureus AP01; test: as above; type: cell-based; conditions: 37° C., 18 hours incubation
Escherichia coli K-12 = test: as above; type: cell-based; conditions: K12, nutrient agar, 37° C., 18 hours incubation, read-out: MIC
[12] = system: Escherichia coli K-12 ML 1410; test: as above; type: cell-based
[13] = system: Escherichia coli K-12 LA 290 R56; test: as above; type: cell-based; conditions: K12LA290R56, 18 h
[14] = system: Staphylococcus aureus Smith; test: as above; type: cell-based; conditions: 37° C., 18 hours incubation
Serratia marcescens = test: as above; type: cell-based; conditions: 37° C., 18 hours incubation
Proteus rettgeri GN466 = test: as above; type: cell-based; conditions: Providencia rettgeri, GN466; nutrient agar, 37° C., 18 hours incubation; read-out: MIC
[15] = system: Escherichia coli JR66/W677; test: as above; type: cell-based; conditions: JR66/W677, nutrient agar, 37° C., 18 hours incubation, read-out: MIC
Sarcina lutea PCI 1001 = test: as above; type: cell-based; conditions: Micrococcus luteus, PCI1001; nutrient agar, 37° C., 18 hours incubation; read-out: MIC
[16] = system: Klebsiella pneumoniae PCI 602; test: as above; type: cell-based; conditions: PCI602, nutrient agar, 37° C., 18 hours incubation, read-out: MIC
[17] = system: Klebsiella pneumoniae 22 #3038; test: as above; type: cell-based; conditions: nutrient agar, 37° C., 18 hours incubation, read-out: MIC
[18] = system: Pseudomonas aeruginosa GN315; test: as above; type: cell-based; conditions: GN315, nutrient agar, 37° C., 18 hours incubation, read-out: MIC
[19] = system: Pseudomonas aeruginosa A3; test: as above; type: cell-based; conditions: 37° C., 18 hours incubation
[20] = system: Pseudomonas aeruginosa TI-13; test: as above; type: cell-based
[21] = system: Micrococcus flavus FDA 16; test: as above; type: cell-based; conditions: FDA16, nutrient agar, 37° C., 18 hours incubation, read-out: MIC
Serratia SOU = test: as above; type: cell-based; conditions: 37° C., 18 hours incubation
[22] = system: Salmonella enteritidis 1891; test: as above; type: cell-based; conditions: Salmonella enterica, nutrient agar, 37° C., 18 hours incubation, read-out: MIC
[23] = Acute toxicity by intravenous injection in mice; conditions: mouse, in vivo
Escherichia coli JR255 = test: Minimum inhibitory concentration, serial dilution on nutrient agar; type: cell-based; conditions: JR255, nutrient agar, 37° C., 18 hours incubation, read-out: MIC
Proteus rettgeri GN311 = test: as above; type: cell-based; conditions: Providencia rettgeri, 37° C., 18 hours incubation
[24] = system: Escherichia coli K-12 LA 290 R64; test: as above; type: cell-based; conditions: K12LA290R64, 18 h

Compound	MIC (Proteus vulgaris OX19)	MIC [3]	MIC [4]	MIC [5]	MIC [6]	MIC [7]	MIC (Serratia 4)	MIC (Escherichia coli K-12 R5)	MIC (Providencia Pv 16)	MIC [8]	MIC [9]	MIC [10]	MIC [11]	MIC (Escherichia coli K-12)	MIC [13]	MIC [14]	MIC (Serratia marcescens)	MIC (Proteus rettgeri GN466)	MIC [15]	MIC (Sarcina lutea PCI 1001)	other results
C[C@H]1O[C@H](O[C@@H]2C[C@H](O[C@H]3O[C@H](CN)CC[C@H]3N)[C@@H](N)C[C@H]2N)[C@H](O)[C@@H](N)[C@@H]1O [TetradeoxyKMB, 5,3',4',6"-tetradeoxykanamycin B]	1.56 µg/mL (≈ 3.72 µM)	> 100 µg/mL	> 100 µg/mL	100 µg/mL (≈ 238 µM)	6.25 µg/mL (≈ 14.9 µM)	> 100 µg/mL	50 µg/mL (≈ 119 µM)	> 100 µg/mL	> 100 µg/mL	50 µg/mL (≈ 119 µM)	25 µg/mL (≈ 59.6 µM)	12.5 µg/mL (≈ 29.8 µM)	6.25 µg/mL (≈ 14.9 µM)	25 µg/mL (≈ 59.6 µM)	100 µg/mL (≈ 238 µM)	< 0.2 µg/mL	100 µg/mL (≈ 238 µM)	25 µg/mL (≈ 59.6 µM)	> 100 µg/mL	50 µg/mL (≈ 119 µM)	MIC ([1]; KPS102, 18 h): 12.5 µg/mL (≈ 29.8 µM); MIC ([2]; ATCC607, nutrient agar, 37° C., 18 hours incubation, read-out: MIC): 0.78 µg/mL (≈ 1.86 µM); MIC ([12]; K12ML1410, 18 h): 12.5 µg/mL (≈ 29.8 µM); MIC [16]: 3.13 µg/mL (≈ 7.46 µM); MIC [17]: 100 µg/mL (≈ 238 µM); MIC [18]: > 100 µg/mL; MIC [19]: 3.13 µg/mL (≈ 7.46 µM); MIC ([20]; TI13, 18 h): 12.5 µg/mL (≈ 29.8 µM); MIC [21]: 50 µg/mL (≈ 119 µM); MIC (Serratia SOU): > 100 µg/mL; MIC [22]: 25 µg/mL (≈ 59.6 µM); LD50 [23]: 25 to 50 mg/kg; MIC (Escherichia coli JR255): 25 µg/mL (≈ 59.6 µM); MIC (Proteus rettgeri GN311): > 100 µg/mL; MIC [24]: 100 µg/mL (≈ 238 µM)
CNC[C@@H]1CC[C@@H](N)[C@@H](O[C@H]2C[C@@H](O[C@H]3O[C@H](CO)[C@@H](O)[C@H](N)[C@H]3O)[C@H](N)C[C@@H]2N)O1 [TrideoxyMKMB, 5,3',4'-trideoxy-6'-N-methylkanamycin B]	3.13 µg/mL (≈ 6.96 µM)	> 100 µg/mL	> 100 µg/mL	25 µg/mL (≈ 55.6 µM)	25 µg/mL (≈ 55.6 µM)	> 100 µg/mL	50 µg/mL (≈ 111 µM)	50 µg/mL (≈ 111 µM)	> 100 µg/mL	100 µg/mL (≈ 222 µM)	50 µg/mL (≈ 111 µM)	50 µg/mL (≈ 111 µM)	25 µg/mL (≈ 55.6 µM)	12.5 µg/mL (≈ 27.8 µM)	25 µg/mL (≈ 55.6 µM)	0.39 µg/mL (≈ 0.868 µM)	100 µg/mL (≈ 222 µM)	25 µg/mL (≈ 55.6 µM)	100 µg/mL (≈ 222 µM)	25 µg/mL (≈ 55.6 µM)	MIC ([1]; KPS102, nutrient agar, 37° C., 18 hours incubation, read-out: MIC): 25 µg/mL (≈ 55.6 µM); MIC ([2]; ATCC607, 18 h): 6.25 µg/mL (≈ 13.9 µM); MIC ([12]; K12ML1410, nutrient agar, 37° C., 18 hours incubation, read-out: MIC): 25 µg/mL (≈ 55.6 µM); MIC [16]: 12.5 µg/mL (≈ 27.8 µM); MIC [17]: 100 µg/mL (≈ 222 µM); MIC [18]: 25 µg/mL (≈ 55.6 µM); MIC [19]: 3.13 µg/mL (≈ 6.96 µM); MIC ([20]; TI13, nutrient agar, 37° C., 18 hours incubation, read-out: MIC): 12.5 µg/mL (≈ 27.8 µM); MIC [21]: 100 µg/mL (≈ 222 µM); MIC (Serratia SOU): > 100 µg/mL; MIC [22]: 25 µg/mL (≈ 55.6 µM); LD50 [23]: 50 to 100 mg/kg; MIC (Escherichia coli JR255): 100 µg/mL (≈ 222 µM); MIC (Proteus rettgeri GN311): 100 µg/mL (≈ 222 µM); MIC [24]: 25 µg/mL (≈ 55.6 µM)
